# Experimental data reported in paper PMC4844702, “Selective inhibition of the kinase DYRK1A by targeting its folding process” (Nature Communications, 2016).
# Tests used:
# JAK1 = target: T1, JAK1 (Homo sapiens, UniProt P23458); assay: Kinase panel (Carna); format: biochemical
# T1 construct: purchased Carna Biosciences
# Excerpt: (§1) Detailed information on the assay conditions is available on the website of Carna Biosciences (http://www.carnabio.com).
# JAK2 = target: T2, JAK2 (Homo sapiens, UniProt O60674); assay: Kinase panel (Carna); format: biochemical
# T2 construct: purchased Carna Biosciences
# Excerpt: as §1
# MAP3K5_Cascade = target: T3, MAP3K5_Cascade (Homo sapiens, UniProt Q99683); assay: Kinase panel (Carna); format: biochemical
# T3 construct: purchased Carna Biosciences
# Excerpt: as §1
# EPHB4 = target: T4, EPHB4 (Homo sapiens, UniProt P54760); assay: Kinase panel (Carna); format: biochemical
# T4 construct: purchased Carna Biosciences
# Excerpt: as §1
# MSK1 = target: T5, MSK1 (Homo sapiens, UniProt O75582); assay: Kinase panel (Carna); format: biochemical
# T5 construct: purchased Carna Biosciences
# Excerpt: as §1
# FLT4 = target: T6, FLT4 (Homo sapiens, UniProt P35916); assay: Kinase panel (Carna); format: biochemical
# T6 construct: purchased Carna Biosciences
# Excerpt: as §1
# MAP2K4_Cascade = target: T7, MAP2K4_Cascade (Homo sapiens, UniProt P45985); assay: Kinase panel (Carna); format: biochemical
# T7 construct: purchased Carna Biosciences
# PIM3 = target: T8, PIM3 (Homo sapiens, UniProt Q86V86); assay: Kinase panel (Carna); format: biochemical; details: 10 µM FINDY
# T8 construct: purchased Carna Biosciences
# p38β = target: T9, p38β (Homo sapiens, UniProt Q15759); assay: Kinase panel (Carna); format: biochemical
# T9 construct: purchased Carna Biosciences
# Excerpt: as §1
# PHKG2 = target: T10, PHKG2 (Homo sapiens, UniProt P15735); assay: Kinase panel (Carna); format: biochemical
# T10 construct: purchased Carna Biosciences
# T10 sequence (P15735 whole entry): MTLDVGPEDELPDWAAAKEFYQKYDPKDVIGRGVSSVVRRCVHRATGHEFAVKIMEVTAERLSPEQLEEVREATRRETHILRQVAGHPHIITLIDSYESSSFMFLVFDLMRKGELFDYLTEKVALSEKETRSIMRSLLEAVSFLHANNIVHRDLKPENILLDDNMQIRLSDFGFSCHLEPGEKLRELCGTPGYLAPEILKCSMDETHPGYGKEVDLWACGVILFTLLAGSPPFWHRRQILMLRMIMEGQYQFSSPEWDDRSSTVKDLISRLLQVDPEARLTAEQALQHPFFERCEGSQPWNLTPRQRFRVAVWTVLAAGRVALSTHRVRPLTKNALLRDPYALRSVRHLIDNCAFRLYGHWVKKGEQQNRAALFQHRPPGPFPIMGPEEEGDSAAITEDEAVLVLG
# Excerpt: as §1
# RSK2 = target: T11, RSK2 (Homo sapiens, UniProt P51812); assay: Kinase panel (Carna); format: biochemical
# T11 construct: purchased Carna Biosciences
# CaMK2γ = target: T12, CaMK2γ (Homo sapiens, UniProt Q13555); assay: Kinase panel (Carna); format: biochemical
# T12 construct: purchased Carna Biosciences
# T12 sequence (Q13555 whole entry): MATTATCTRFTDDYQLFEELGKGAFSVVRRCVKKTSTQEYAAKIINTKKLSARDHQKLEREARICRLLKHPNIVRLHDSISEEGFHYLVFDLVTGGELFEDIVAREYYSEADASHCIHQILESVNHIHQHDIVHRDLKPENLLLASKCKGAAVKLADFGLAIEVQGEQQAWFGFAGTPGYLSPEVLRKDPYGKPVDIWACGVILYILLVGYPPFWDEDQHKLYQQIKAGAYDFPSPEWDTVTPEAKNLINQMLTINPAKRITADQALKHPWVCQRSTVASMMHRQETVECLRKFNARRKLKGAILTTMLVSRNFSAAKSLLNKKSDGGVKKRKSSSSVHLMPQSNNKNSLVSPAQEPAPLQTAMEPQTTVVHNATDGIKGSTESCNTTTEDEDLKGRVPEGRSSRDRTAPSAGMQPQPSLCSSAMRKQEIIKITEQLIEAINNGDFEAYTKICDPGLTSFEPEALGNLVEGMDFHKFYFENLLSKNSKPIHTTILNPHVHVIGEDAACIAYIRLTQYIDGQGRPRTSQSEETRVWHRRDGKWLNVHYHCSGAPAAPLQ
# CDK3/CycE1 = target: T13, CDK3/CycE1 (Homo sapiens, UniProt Q00526); assay: Kinase panel (Carna); format: biochemical
# T13 construct: purchased Carna Biosciences
# Excerpt: as §1
# PRKX = target: T14, PRKX (Homo sapiens, UniProt P51817); assay: Kinase panel (Carna); format: biochemical
# T14 construct: purchased Carna Biosciences
# MINK = target: T15, MINK (Homo sapiens, UniProt Q8N4C8); assay: Kinase panel (Carna); format: biochemical
# T15 construct: purchased Carna Biosciences
# Excerpt: as §1
# PEK = target: T16, PEK (Homo sapiens, UniProt Q9NZJ5); assay: Kinase panel (Carna); format: biochemical
# T16 construct: purchased Carna Biosciences
# Excerpt: as §1
# TRKC = target: T17, TRKC (Homo sapiens, UniProt Q16288); assay: Kinase panel (Carna); format: biochemical
# T17 construct: purchased Carna Biosciences
# Excerpt: as §1
# other 13 kinases = assay: Endogenous kinases in intact HEK293 cells, western blot; format: cell-based; details: 3 days
# Excerpt: The results are presented as means±s.d. (n=4). […] Representative data from the duplicate experiments are shown.
# PIM1 = target: T18, PIM1 (Homo sapiens, UniProt P11309); assay: Kinase panel (Carna); format: biochemical; details: 10 µM FINDY
# T18 construct: purchased Carna Biosciences
# Excerpt: as §1
# BRAF_Cascade = target: T19, BRAF_Cascade (Homo sapiens, UniProt P15056); assay: Kinase panel (Carna); format: biochemical
# T19 construct: purchased Carna Biosciences
# Excerpt: as §1
# MAP2K3_Cascade = target: T20, MAP2K3_Cascade (Homo sapiens, UniProt P46734); assay: Kinase panel (Carna); format: biochemical
# T20 construct: purchased Carna Biosciences
# MRCKα = target: T21, MRCKα (Homo sapiens, UniProt Q5VT25); assay: Kinase panel (Carna); format: biochemical
# T21 construct: purchased Carna Biosciences
# PLK2 = target: T22, PLK2 (Homo sapiens, UniProt Q9NYY3); assay: Kinase panel (Carna); format: biochemical
# T22 construct: purchased Carna Biosciences
# AXL = target: T23, AXL (Homo sapiens, UniProt P30530); assay: Kinase panel (Carna); format: biochemical
# T23 construct: purchased Carna Biosciences
# Excerpt: as §1
# CDC2/CycB1 = target: T24, CDC2/CycB1 (Homo sapiens, UniProt P06493); assay: Kinase panel (Carna); format: biochemical
# T24 construct: purchased Carna Biosciences
# MNK2 = target: T25, MNK2 (Homo sapiens, UniProt Q9HBH9); assay: Kinase panel (Carna); format: biochemical
# T25 construct: purchased Carna Biosciences
# RET = target: T26, RET (Homo sapiens, UniProt P07949); assay: Kinase panel (Carna); format: biochemical
# T26 construct: purchased Carna Biosciences
# T26 sequence (P07949 29-1114): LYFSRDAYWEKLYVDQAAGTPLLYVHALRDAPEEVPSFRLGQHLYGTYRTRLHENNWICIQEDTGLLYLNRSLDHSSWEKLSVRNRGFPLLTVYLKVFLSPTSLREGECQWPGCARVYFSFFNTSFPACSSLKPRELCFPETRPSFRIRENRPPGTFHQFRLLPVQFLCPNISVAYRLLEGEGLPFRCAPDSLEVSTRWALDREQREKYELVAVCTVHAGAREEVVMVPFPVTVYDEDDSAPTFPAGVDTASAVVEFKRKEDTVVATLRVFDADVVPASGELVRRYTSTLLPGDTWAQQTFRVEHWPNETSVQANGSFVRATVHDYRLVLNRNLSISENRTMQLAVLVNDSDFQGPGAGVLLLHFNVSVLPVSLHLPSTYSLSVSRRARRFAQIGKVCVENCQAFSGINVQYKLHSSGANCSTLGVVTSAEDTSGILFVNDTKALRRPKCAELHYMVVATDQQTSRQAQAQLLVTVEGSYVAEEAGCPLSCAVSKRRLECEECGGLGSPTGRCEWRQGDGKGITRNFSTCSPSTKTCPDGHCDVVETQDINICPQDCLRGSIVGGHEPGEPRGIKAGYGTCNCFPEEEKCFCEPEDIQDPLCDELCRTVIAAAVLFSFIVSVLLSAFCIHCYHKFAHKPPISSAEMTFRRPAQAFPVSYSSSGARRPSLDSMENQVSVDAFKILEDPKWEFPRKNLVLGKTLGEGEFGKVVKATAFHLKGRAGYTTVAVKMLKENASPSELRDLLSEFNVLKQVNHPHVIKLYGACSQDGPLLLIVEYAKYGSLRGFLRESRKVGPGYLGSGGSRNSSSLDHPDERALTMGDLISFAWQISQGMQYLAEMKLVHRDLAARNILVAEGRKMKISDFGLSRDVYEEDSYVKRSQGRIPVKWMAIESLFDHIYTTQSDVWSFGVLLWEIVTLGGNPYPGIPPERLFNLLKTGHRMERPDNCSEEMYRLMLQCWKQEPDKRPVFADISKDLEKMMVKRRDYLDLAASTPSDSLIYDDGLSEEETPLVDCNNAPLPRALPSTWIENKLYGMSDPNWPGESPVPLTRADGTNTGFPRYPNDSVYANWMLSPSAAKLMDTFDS
# Excerpt: as §1
# PKCε = target: T27, PKCε (Homo sapiens, UniProt Q02156); assay: Kinase panel (Carna); format: biochemical
# T27 construct: purchased Carna Biosciences
# Excerpt: as §1
# ARG = target: T28, ARG (Homo sapiens, UniProt P42684); assay: Kinase panel (Carna); format: biochemical
# T28 construct: purchased Carna Biosciences
# T28 sequence (P42684 whole entry): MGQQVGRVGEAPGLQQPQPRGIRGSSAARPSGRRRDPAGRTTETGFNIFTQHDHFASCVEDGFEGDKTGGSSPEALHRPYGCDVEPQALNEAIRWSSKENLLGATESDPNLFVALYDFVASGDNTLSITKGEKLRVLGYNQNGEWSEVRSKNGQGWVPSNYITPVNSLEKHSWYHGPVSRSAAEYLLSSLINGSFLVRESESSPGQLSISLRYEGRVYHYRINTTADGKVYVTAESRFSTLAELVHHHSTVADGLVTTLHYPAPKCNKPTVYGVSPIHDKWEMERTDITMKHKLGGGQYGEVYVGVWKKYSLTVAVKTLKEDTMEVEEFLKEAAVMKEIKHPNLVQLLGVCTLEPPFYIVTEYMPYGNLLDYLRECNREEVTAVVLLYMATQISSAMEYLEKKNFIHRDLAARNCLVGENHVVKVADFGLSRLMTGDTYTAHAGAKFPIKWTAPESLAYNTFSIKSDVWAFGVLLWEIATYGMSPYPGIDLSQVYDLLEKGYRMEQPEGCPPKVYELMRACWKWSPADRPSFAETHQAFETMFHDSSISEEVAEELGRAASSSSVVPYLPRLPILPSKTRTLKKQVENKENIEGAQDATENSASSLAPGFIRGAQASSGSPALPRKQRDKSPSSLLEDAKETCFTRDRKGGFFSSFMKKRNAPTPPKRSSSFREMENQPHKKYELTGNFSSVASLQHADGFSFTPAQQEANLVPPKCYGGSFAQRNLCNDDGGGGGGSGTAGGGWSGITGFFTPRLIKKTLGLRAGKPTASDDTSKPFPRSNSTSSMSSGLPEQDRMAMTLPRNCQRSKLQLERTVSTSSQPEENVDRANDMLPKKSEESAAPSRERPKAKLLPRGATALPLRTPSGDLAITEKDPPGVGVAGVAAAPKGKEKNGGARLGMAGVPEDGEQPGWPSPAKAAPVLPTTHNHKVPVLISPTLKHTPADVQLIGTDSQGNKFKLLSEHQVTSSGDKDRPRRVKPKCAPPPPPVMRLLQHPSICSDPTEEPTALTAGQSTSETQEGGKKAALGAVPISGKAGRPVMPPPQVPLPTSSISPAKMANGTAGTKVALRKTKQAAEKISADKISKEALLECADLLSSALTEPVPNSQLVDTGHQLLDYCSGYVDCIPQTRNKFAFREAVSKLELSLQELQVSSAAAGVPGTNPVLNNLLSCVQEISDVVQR
# Excerpt: as §1
# MARK4 = target: T29, MARK4 (Homo sapiens, UniProt Q96L34); assay: Kinase panel (Carna); format: biochemical; details: 10 µM FINDY
# T29 construct: purchased Carna Biosciences
# Excerpt: as §1
# ROS = target: T30, ROS (Homo sapiens, UniProt P08922); assay: Kinase panel (Carna); format: biochemical
# T30 construct: purchased Carna Biosciences
# Excerpt: as §1
# DCAMKL2 = target: T31, DCAMKL2 (Homo sapiens, UniProt Q8N568); assay: Kinase panel (Carna); format: biochemical
# T31 construct: purchased Carna Biosciences
# T31 sequence (Q8N568 whole entry): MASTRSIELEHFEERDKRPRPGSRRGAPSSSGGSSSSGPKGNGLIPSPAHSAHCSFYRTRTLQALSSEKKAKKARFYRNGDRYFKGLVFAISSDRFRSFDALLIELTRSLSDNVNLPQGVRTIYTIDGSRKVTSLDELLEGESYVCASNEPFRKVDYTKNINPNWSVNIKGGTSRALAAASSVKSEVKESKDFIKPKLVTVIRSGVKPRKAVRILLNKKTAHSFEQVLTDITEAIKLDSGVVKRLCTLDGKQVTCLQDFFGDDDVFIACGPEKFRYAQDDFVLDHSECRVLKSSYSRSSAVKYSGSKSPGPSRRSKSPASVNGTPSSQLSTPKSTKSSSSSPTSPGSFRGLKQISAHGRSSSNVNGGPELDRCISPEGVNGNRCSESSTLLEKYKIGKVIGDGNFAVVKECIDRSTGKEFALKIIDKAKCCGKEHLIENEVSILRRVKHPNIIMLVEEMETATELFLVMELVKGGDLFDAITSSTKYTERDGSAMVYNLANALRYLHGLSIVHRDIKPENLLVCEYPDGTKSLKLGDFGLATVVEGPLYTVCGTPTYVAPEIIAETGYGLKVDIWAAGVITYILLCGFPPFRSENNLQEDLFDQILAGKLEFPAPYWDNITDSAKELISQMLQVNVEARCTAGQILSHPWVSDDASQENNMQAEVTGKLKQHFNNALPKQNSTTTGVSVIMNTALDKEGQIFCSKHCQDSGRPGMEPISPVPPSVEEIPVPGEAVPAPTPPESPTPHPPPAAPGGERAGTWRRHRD
# Excerpt: as §1
# TBK1 = target: T32, TBK1 (Homo sapiens, UniProt Q9UHD2); assay: Kinase panel (Carna); format: biochemical
# T32 construct: purchased Carna Biosciences
# Excerpt: as §1
# CSK = target: T33, CSK (Homo sapiens, UniProt P41240); assay: Kinase panel (Carna); format: biochemical
# T33 construct: purchased Carna Biosciences
# Excerpt: as §1
# FAK = target: T34, FAK (Homo sapiens, UniProt Q05397); assay: Kinase panel (Carna); format: biochemical
# T34 construct: purchased Carna Biosciences
# Excerpt: as §1
# CK1γ3 = target: T35, CK1γ3 (Homo sapiens, UniProt Q9Y6M4); assay: Kinase panel (Carna); format: biochemical
# T35 construct: purchased Carna Biosciences
# GSK3α = target: T36, GSK3α (Homo sapiens, UniProt P49840); assay: Kinase panel (Carna); format: biochemical
# T36 construct: purchased Carna Biosciences
# FGFR4 = target: T37, FGFR4 (Homo sapiens, UniProt P22455); assay: Kinase panel (Carna); format: biochemical
# T37 construct: purchased Carna Biosciences
# IGF1R = target: T38, IGF1R (Homo sapiens, UniProt P08069); assay: Kinase panel (Carna); format: biochemical
# T38 construct: purchased Carna Biosciences
# Excerpt: as §1
# NDR1 = target: T39, NDR1 (Homo sapiens, UniProt Q15208); assay: Kinase panel (Carna); format: biochemical
# T39 construct: purchased Carna Biosciences
# Excerpt: as §1
# DDR1 = target: T40, DDR1 (Homo sapiens, UniProt Q08345); assay: Kinase panel (Carna); format: biochemical
# T40 construct: purchased Carna Biosciences
# IRAK4 = target: T41, IRAK4 (Homo sapiens, UniProt Q9NWZ3); assay: Kinase panel (Carna); format: biochemical
# T41 construct: purchased Carna Biosciences
# Excerpt: as §1
# JNK3 = target: T42, JNK3 (Homo sapiens, UniProt P53779); assay: Kinase panel (Carna); format: biochemical
# T42 construct: purchased Carna Biosciences
# T42 sequence (P53779 whole entry): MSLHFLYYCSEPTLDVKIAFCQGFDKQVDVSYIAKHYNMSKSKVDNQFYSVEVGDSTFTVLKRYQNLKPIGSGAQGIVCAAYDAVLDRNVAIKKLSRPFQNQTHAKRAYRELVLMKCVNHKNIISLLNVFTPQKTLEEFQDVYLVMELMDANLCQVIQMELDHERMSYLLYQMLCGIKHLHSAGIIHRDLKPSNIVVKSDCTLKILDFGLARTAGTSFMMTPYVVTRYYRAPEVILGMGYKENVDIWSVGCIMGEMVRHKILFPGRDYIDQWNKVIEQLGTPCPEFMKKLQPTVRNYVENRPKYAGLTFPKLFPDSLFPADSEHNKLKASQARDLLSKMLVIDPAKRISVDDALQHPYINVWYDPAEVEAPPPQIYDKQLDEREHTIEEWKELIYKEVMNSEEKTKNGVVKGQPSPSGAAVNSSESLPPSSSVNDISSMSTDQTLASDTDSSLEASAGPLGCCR
# LYNb = target: T43, LYNb (Homo sapiens, UniProt P07948); assay: Kinase panel (Carna); format: biochemical
# T43 construct: purchased Carna Biosciences
# Excerpt: as §1
compound,measurement,setting,value
COc1ccc(/C=C2\SC(=S)NC2=O)cc1C#C[Si](C)(C)C [FINDY],inhibition at 10 µM,JAK1,5.7%
same,inhibition at 10 µM,JAK2,7.1%
same,inhibition at 10 µM,MAP3K5_Cascade,32.1%
same,inhibition at 10 µM,EPHB4,20.5%
same,inhibition at 10 µM,MSK1,3.8%
same,inhibition at 10 µM,FLT4,9.8%
same,inhibition at 10 µM,MAP2K4_Cascade,6.4%
same,inhibition at 10 µM,PIM3,83.1%
same,inhibition at 10 µM,p38β,11.2%
same,inhibition at 10 µM,PHKG2,1.9%
same,inhibition at 10 µM,RSK2,39.9%
same,inhibition at 10 µM,CaMK2γ,-4.6%
same,inhibition at 10 µM,CDK3/CycE1,20.7%
same,inhibition at 10 µM,PRKX,3%
same,inhibition at 10 µM,MINK,5%
same,inhibition at 10 µM,PEK,13%
same,inhibition at 10 µM,TRKC,11.8%
same,endogenous expression of the other 13 kinases,other 13 kinases,no alteration
same,inhibition at 10 µM,PIM1,76.8%
same,inhibition at 10 µM,BRAF_Cascade,33.9%
same,inhibition at 10 µM,MAP2K3_Cascade,26%
same,inhibition at 10 µM,MRCKα,2.7%
same,inhibition at 10 µM,PLK2,11.1%
same,inhibition at 10 µM,AXL,6.7%
same,inhibition at 10 µM,CDC2/CycB1,43.4%
same,inhibition at 10 µM,MNK2,8.3%
same,inhibition at 10 µM,RET,12.6%
same,inhibition at 10 µM,PKCε,-6.6%
same,inhibition at 10 µM,ARG,15.2%
same,inhibition at 10 µM,MARK4,79.8%
same,inhibition at 10 µM,ROS,0.3%
same,inhibition at 10 µM,DCAMKL2,-3.8%
same,inhibition at 10 µM,TBK1,4%
same,inhibition at 10 µM,CSK,6.7%
same,inhibition at 10 µM,FAK,7.3%
same,inhibition at 10 µM,CK1γ3,15.9%
same,inhibition at 10 µM,GSK3α,43.4%
same,inhibition at 10 µM,FGFR4,6.9%
same,inhibition at 10 µM,IGF1R,2.4%
same,inhibition at 10 µM,NDR1,3.8%
same,inhibition at 10 µM,DDR1,-3.2%
same,inhibition at 10 µM,IRAK4,-0.8%
same,inhibition at 10 µM,JNK3,4.5%
same,inhibition at 10 µM,LYNb,11.4%
